Test results taken from patent publication US20210308034A1, “PREBIOTIC COMPOSITIONS AND METHODS FOR MAINTAINING A HEALTHY SKIN MICROBIOTA” (KIMBERLY-CLARK WORLDWIDE, INC., priority 2018, published 2021).
Where a SMILES comes first, the peptide text is derived from it.

Key:
Assay type in all cases: cell-based
[1] = system: commensal and pathogenic skin bacteria; experiment: Carbohydrate Screening Test Method, all bacteria codes tested; settings: ten bacteria codes of Table 1
Source text: (§1) After creating desired ratios of various commensal skin bacteria in a healthy skin microbiome, 188 different carbohydrate sources were screened as the next step in determining potential prospects for skin microbiota balancing agents. The screening process was set up to determine which carbohydrate sources promoted commensal and/or pathogenic bacteria as well as to obtain individual and combinations of carbohydrate sources that could serve as microbiota balancing agents that can support or maintain the healthy proportions of commensal skin bacteria of Corynebacterium, Staphylococcus, and Micrococcus. The screening was conducted utilizing Biolog phenotype microarray plates (Hayward, Calif.). Table 1 provides a coded list of the commensal and pathogenic skin bacteria that the carbohydrates were screened against.
(§2) The Bacteria Codes B, D, E, I, and J are commensal bacteria and are shaded in Table 2 for references purposes. The bacteria codes were each placed in a carbon microarray plate and screened through the Carbohydrate Screening Test Method, as described in the Test Methods section herein. If a particular bacteria code utilized a specific carbohydrate source as described in the Carbohydrate Screening Test Method, then the corresponding cell in Table 2 was marked with a Y (short for “Yes”).
(§3) The study employed 10 representative skin bacteria; Staphylococcus epidermidis ATCC 14990, Staphylococcus epidermidis M23864:W2, Staphylococcus aureus ATCC 6538, Staphylococcus aureus ATCC 25904 (Newman), Pseudomonas aeruginosa ATCC 9027, Micrococcus luteus ATCC […], Micrococcus luteus SK58, Klebsiella pneumoniae ATCC BAA-2146, Corynebacterium amycolatum SK46, and Corynebacterium minutissimum ATCC 23348. Cultures were started from freezer bead stocks by placing a single bead into 20 mL of tryptic soy broth (TSB) for all organisms except C. amycolatum SK46 and C. minutissimum ATCC 23348, which were placed into brain heart infusion (BHI) broth. Cultures were grown for about 24 hr at 37° C. except M. luteus ATCC 49732 and M. luteus SK58, which were grown at 30° C. A passage of the culture was made using a sterile swab and streaked onto two M9*2 agar plates to prepare the incubated culture for the phenotype microarray pate according to Table 4. Plates were incubated for about 24 hr at 37° C. except for M. luteus ATCC 49732 and M. luteus SK58, which were incubated at 30° C. for 24 hr.
(§4) All cultures were harvested and washed before inoculation into the carbon microarray plate (BiOLOG, Hayward Calif.), with Biolog Plates PM1 and PM2 each having a source definition of Carbon. The bacteria on the M9*2 agar was suspended via agitation with an inoculating loop in 1 mL of M9*1 media for collection in a 1.7 mL micro centrifuge tube, as noted in Table 4. The bacteria was suspended again in M9*1 media, agitated, and collected into the same 1.7 mL microcentrifuge tube used in the previous step. The tube was centrifuged for 5 minutes at 4,000×G, supernatant decanted, the pellet was resuspended in 1 mL of M9*1 media, and vortex. This washing process was repeated for a total of 4 times.
A tenfold dilution in M9*1 media was performed using 1 mL of the washed bacterial culture.

[2] = system: Staphylococcus epidermidis (M23864:W2); experiment: Carbohydrate Screening Test Method (Biolog phenotype microarray), Bacteria Code J; settings: Commensal; carbon microarray plate, OD 600 nm, 36 hr, 33° C.; positive = more than 0.05 OD units above zero; blank cell = not utilized
Source text: as §1, §2
(§5) To do so, the respective microarray data for the 79 carbohydrate sources was run through the GrowthRates 2.1 program to obtain growth parameters, such as growth rates and maximum yield data as described by the Belingham Research Institute, Hall, B. G., H. Acar and M. Barlow. 2014 Growth Rates Made Easy. Mol. Biol. Evol. 31:232-238 doi:10.1093/molbev/mst197. The max yield parameters generated were utilized to calculate ratios of tested commensal bacteria. The ratios calculated were compared back to the desired ratios identified above (Corynebacterium to Staphylococcus of 1.3, Corynebacterium to Micrococcus of 1.4, and Staphylococcus to Micrococcus of 1.1).
(§6) As an example of this methodology used to calculate the commensal bacteria ratios and the difference between the calculated ratios and the desired ratios, an example code from Table 3 will be described. […] The max yields were then used to calculate ratios the bacteria would reach in a co-culture.

[3] = system: Pseudomonas aeruginosa (ATCC 9027); settings: Pathogenic; carbon microarray plate, OD 600 nm, 36 hr, 33° C.; positive = more than 0.05 OD units above zero; blank cell = not utilized
Source text: as §1, §2, §3, §4
(§7) A tenfold dilution in M9*1 media was performed using 1 mL of the washed bacterial culture. Of the tenfold dilution 200 μL was placed in an untreated 96-well plate (Falcon, Pasadena Tx.) for an initial optical density (OD) reading at a wavelength of 600 nm. The OD was used to correlate to colony forming units (CFU) per milliliter by using linear regression lines for each organism.

[4] = system: Corynebacterium jeikum (ATCC 33033); experiment: Carbohydrate Screening Test Method (Biolog phenotype microarray), Bacteria Code B; settings: Commensal; carbon microarray plate, OD 600 nm, 36 hr, 33° C.; positive = more than 0.05 OD units above zero; blank cell = not utilized
Experimental: as §1, with “The” for “After creating desired ratios of various commensal skin bacteria in a healthy skin microbiome, 188 different carbohydrate sources were screened as the next step in determining potential prospects for skin microbiota balancing agents. The”
as §2
as §5, with “2014 Growth Rates Made Easy.” left out, “31:232-238 doi:10.1093/molbev/mst197.” left out
as §6
A passage of the culture was made using a sterile swab and streaked onto two M9*2 agar plates to prepare the incubated culture for the phenotype microarray pate according to Table 4.
All cultures were harvested and washed before inoculation into the carbon microarray plate (BiOLOG, Hayward Calif.), with Biolog Plates PM1 and PM2 each having a source definition of Carbon. The bacteria on the M9*2 agar was suspended via agitation with an inoculating loop in 1 mL of M9*1 media for collection in a 1.7 mL micro centrifuge tube, as noted in Table 4.

[5] = system: Klebsiella pneumoniae (ATCC BAA-2146); settings: Pathogenic; carbon microarray plate, OD 600 nm, 36 hr, 33° C.; positive = more than 0.05 OD units above zero; blank cell = not utilized
Source text: as §1
Table 2 provides the results of screening various carbohydrate sources against the commensal and pathogenic bacteria codes listed in Table 1. The Bacteria Codes B, D, E, I, and J are commensal bacteria and are shaded in Table 2 for references purposes. The bacteria codes were each placed in a carbon microarray plate and screened through the Carbohydrate Screening Test Method, as described in the Test Methods section herein. If a particular bacteria code utilized a specific carbohydrate source as described in the Carbohydrate Screening Test Method, then the corresponding cell in Table 2 was marked with a Y (short for “Yes”). […] Many of the carbohydrate sources were utilized by both commensal and pathogenic bacteria, and as such, would not provide an advantage for selective growth of the commensal bacteria. However, some of the carbohydrate sources were only used by commensal bacteria and were identified for further testing as described herein.
as §3, §4
as §7, with “organism. […]” for “organism.”

[6] = system: Micrococcus luteus (SK58); experiment: Carbohydrate Screening Test Method (Biolog phenotype microarray), Bacteria Code E; settings: Commensal; carbon microarray plate, OD 600 nm, 36 hr, 33° C.; positive = more than 0.05 OD units above zero; blank cell = not utilized
Source text: as §1, §2, §5, §6

| Compound | utilization by the bacteria codes tested [1] | Carbohydrate Screening Results, Bacteria Code J [2] | further results |
| --- | --- | --- | --- |
| O=C(O)Cc1ccc(O)cc1 [p-hydroxy phenyl acetic acid] | not utilized by any of the bacteria |  |  |
| C[N+](C)(C)CC(O)CC(=O)[O-] (racemic) [D,L-Carnitine] |  | Y | Carbohydrate Screening Results, Bacteria Code F [3]: Y |
| CCCC(=O)C(=O)O [α-Keto-Valeric Acid] | not utilized by any of the bacteria |  |  |
| OCC(O)CO [Glycerol] |  | Y | Carbohydrate Screening Results, Bacteria Code B [4]: Y; Carbohydrate Screening Results, Bacteria Code C [5]: Y |
| NCCCC[C@H](N)C(=O)O [L-Lysine] | not utilized by any of the bacteria |  |  |
| OC[C@@H](O)[C@H](O)[C@@H](O)CO [Xylitol] | not utilized by any of the bacteria |  |  |
| Laminarin | not utilized by any of the bacteria |  |  |
| CC(=O)N[C@@H](CO)[C@@H](O)[C@H](O)[C@H](O)CO [N-Acetyl-D-Glucosaminitol] |  | Y |  |
| O=C[C@@H](O)[C@H](O)[C@@H](O)[C@@H](O)CO [L-Glucose] | not utilized by any of the bacteria |  |  |
| O=C[C@H](O)[C@H](O)[C@@H](O)CO [L-Lyxose] | not utilized by any of the bacteria |  |  |
| Mannan |  | Y |  |
| OC[C@H]1O[C@@H]2O[C@H]3[C@H](O)[C@@H](O)[C@@H](O[C@H]4[C@H](O)[C@@H](O)[C@@H](O[C@H]5[C@H](O)[C@@H](O)[C@@H](O[C@H]6[C@H](O)[C@@H](O)[C@@H](O[C@H]7[C@H](O)[C@@H](O)[C@@H](O[C@H]8[C@H](O)[C@@H](O)[C@@H](O[C@H]9[C@H](O)[C@@H](O)[C@@H](O[C@H]1[C@H](O)[C@H]2O)O[C@@H]9CO)O[C@@H]8CO)O[C@@H]7CO)O[C@@H]6CO)O[C@@H]5CO)O[C@@H]4CO)O[C@@H]3CO [γ-Cyclodextrin] |  | Y |  |
| NCC(=O)N1CCC[C@H]1C(=O)O [Glycyl-L-Proline] (H-Gly-Pro-OH) | not utilized by any of the bacteria |  |  |
| CCC(C)N (centres unmarked) [Sec-Butylamine] | not utilized by any of the bacteria |  |  |
| CC(C)[C@H](N)C(=O)O [L-Valine] | not utilized by any of the bacteria |  |  |
| O=C(CO)[C@@H](O)[C@H](O)[C@@H](O)C(=O)O [5-Keto-D-Gluconic Acid] | not utilized by any of the bacteria |  |  |
| Nc1ncnc2c1ncn2C1CC(O)C(CO)O1 (centres unmarked) [2-Deoxy Adenosine] | not utilized by any of the bacteria |  |  |
| OC[C@@]12OC[C@@H](O1)[C@@H](O)[C@@H](O)[C@@H]2O [Sedoheptulosan] | not utilized by any of the bacteria |  |  |
| Dextrin |  | Y | Carbohydrate Screening Results, Bacteria Code C [5]: Y |
| NCC(O)c1ccc(O)cc1 [D.L-Octopamine] |  | Y | Carbohydrate Screening Results, Bacteria Code F [3]: Y; Carbohydrate Screening Results, Bacteria Code C [5]: Y |
| O=C(O)CCCO [y-Hydroxy Butyric Acid] | not utilized by any of the bacteria |  |  |
| O=C[C@H](O)[C@@H](O)[C@@H](O)[C@H](O)CO [D-Galactose] |  | Y | Carbohydrate Screening Results, Bacteria Code E [6]: Y; Carbohydrate Screening Results, Bacteria Code B [4]: Y; Carbohydrate Screening Results, Bacteria Code F [3]: Y; Carbohydrate Screening Results, Bacteria Code C [5]: Y |
| O=C(O)[C@H](O)[C@@H](O)[C@H](O)[C@H](O)CO [D-Gluconic Acid] |  | Y | Carbohydrate Screening Results, Bacteria Code E [6]: Y; Carbohydrate Screening Results, Bacteria Code B [4]: Y; Carbohydrate Screening Results, Bacteria Code F [3]: Y; Carbohydrate Screening Results, Bacteria Code C [5]: Y |
| NCCCCC(=O)O [δ-Amino Valeric Acid] |  | Y |  |
| O=P(O)(O)OCC(O)CO (racemic) [D,L-α-Glycerol-Phosphate] |  | Y | Carbohydrate Screening Results, Bacteria Code E [6]: Y; Carbohydrate Screening Results, Bacteria Code B [4]: Y |
